Assay results from patent US12291519B2, “2-hydroxycycloalkane-1-carbamoyl” (Idorsia Pharmaceuticals Ltd, priority 2019, dated 2025).

Experiments:
[1] = target: human Gal-3 (hGal-3) (Homo sapiens (Human), UniProt P17931); assay: Competitive binding assay: biotinylated hGal-3 binding to microplate-adsorbed asialofetuin (ASF); conditions: Activity on hGal-3; binding of biotinylated hGal-3 to ASF-coated plates; mean values
Outline: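 Serially diluted compounds competed with biotinylated human Gal-3 for binding to plate-adsorbed asialofetuin over 3 h at 4 °C. Bound Gal-3 was detected with streptavidin-peroxidase (80 ng/mL, 1 h, 4 °C) and ABTS substrate. IC50 values are means of several measurements.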

[2] = target: human Gal-1 (hGal-1); assay: Competitive binding assay: biotinylated hGal-1 binding to microplate-adsorbed asialofetuin (ASF); conditions: Activity on hGal-1; binding of biotinylated hGal-1 to ASF-coated plates; mean values
human Gal-1 (hGal-1), sequence (P09382 2-135 limits assumed): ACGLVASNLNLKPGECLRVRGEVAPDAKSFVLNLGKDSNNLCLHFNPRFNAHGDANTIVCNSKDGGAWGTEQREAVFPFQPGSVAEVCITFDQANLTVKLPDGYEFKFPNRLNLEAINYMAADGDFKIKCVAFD
Outline: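 Inhibition measured as loss of hGal-1 (biotinylated, 300–1000 ng/mL, wild type or Cys→Ser mutant) binding to adsorbed asialofetuin over 3 h at 4 °C. Bound lectin detected with streptavidin-HRP and ABTS (410 nm, 30–45 min); IC50 values averaged across repeat measurements.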

human Gal-3 (hGal-3), sequence (P17931 whole entry): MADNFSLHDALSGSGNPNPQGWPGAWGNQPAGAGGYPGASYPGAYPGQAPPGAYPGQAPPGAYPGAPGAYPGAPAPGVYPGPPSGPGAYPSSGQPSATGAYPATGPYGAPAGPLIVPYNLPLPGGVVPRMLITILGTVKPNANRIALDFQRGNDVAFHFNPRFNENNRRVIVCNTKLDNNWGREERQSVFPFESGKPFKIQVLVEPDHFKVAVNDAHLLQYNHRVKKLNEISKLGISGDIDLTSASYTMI

IC50 [1] [nM] | IC50 [2] [nM] | Compound
11 | 257 | CO[C@@H]1[C@@H](n2cc(-c3ccc(Cl)c(Cl)c3)nn2)[C@@H](O)[C@@H](CO)O[C@H]1C(=O)N(c1cc(Cl)cc(Cl)c1)[C@H]1CCCC[C@@H]1O [Example 189, (2R,3R,4S,5R,6R)-N-(3,5-dichlorophenyl)-4-(4-(3,4-dichlorophenyl)-1H-1,2,3-triazol-1-yl)-5-hydroxy-N-((1S,2S)-2-hydroxycyclohexyl)-6-(hydroxymethyl)-3-methoxytetrahydro-2H-pyran-2-carboxamide]
43 | 1240 | CO[C@@H]1[C@@H](n2cc(-c3cc(F)c(F)c(F)c3)nn2)[C@@H](O)[C@@H](CO)O[C@H]1C(=O)N(c1ccc2ccsc2c1)[C@H]1CCCC[C@@H]1O [Example 102, (2R,3R,4S,5R,6R)-N-(benzo[b]thiophen-6-yl)-5-hydroxy-N-((1S,2S)-2-hydroxycyclohexyl)-6-(hydroxymethyl)-3-methoxy-4-(4-(3,4,5-trifluorophenyl)-1H-1,2,3-triazol-1-yl)tetrahydro-2H-pyran-2-carboxamide]
11 | 421 | Cc1ccc(-c2cn([C@H]3[C@@H](O)[C@@H](CO)O[C@@H](C(=O)N(c4cc(Cl)cc(C#N)c4)[C@H]4CCCC[C@@H]4O)[C@@H]3OCC(=O)O)nn2)c(F)c1F [Example 172, 2-(((2R,3R,4S,5R,6R)-2-((3-chloro-5-cyanophenyl)((1S,2S)-2-hydroxycyclohexyl)carbamoyl)-4-(4-(2,3-difluoro-4-methylphenyl)-1H-1,2,3-triazol-1-yl)-5-hydroxy-6-(hydroxymethyl)tetrahydro-2H-pyran-3-yl)oxy)acetic acid]
12 | 181 | O=C(CO[C@@H]1[C@@H](n2cc(-c3cc(F)c(F)c(F)c3)nn2)[C@@H](O)[C@@H](CO)O[C@H]1C(=O)N(c1cc(Cl)cc(Cl)c1)[C@H]1CCCC[C@@H]1O)N1CCC(O)CC1 [Example 127, (2R,3R,4S,5R,6R)—N-(3,5-dichlorophenyl)-5-hydroxy-N-((1S,2S)-2-hydroxycyclohexyl)-6-(hydroxymethyl)-3-(2-(4-hydroxypiperidin-1-yl)-2-oxoethoxy)-4-(4-(3,4,5-trifluorophenyl)-1H-1,2,3-triazol-1-yl)tetrahydro-2H-pyran-2-carboxamide]
25 | 383 | CO[C@@H]1[C@@H](n2cc(-c3cc(F)cc(F)c3)nn2)[C@@H](O)[C@@H](CO)O[C@H]1C(=O)N(c1cc(Cl)cc(C#N)c1)[C@H]1CCCC[C@@H]1O [Example 80, (2R,3R,4S,5R,6R)-N-(3-chloro-5-cyanophenyl)-4-(4-(3,5-difluorophenyl)-1H-1,2,3-triazol-1-yl)-5-hydroxy-N-((1S,2S)-2-hydroxycyclohexyl)-6-(hydroxymethyl)-3-methoxytetrahydro-2H-pyran-2-carboxamide]
25 | 1080 | CO[C@@H]1[C@@H](n2cc(-c3cc(F)c(Br)c(F)c3)nn2)[C@@H](O)[C@@H](CO)O[C@H]1C(=O)N(c1ccc2scnc2c1)[C@H]1CCCC[C@@H]1O [Example 153, (2R,3R,4S,5R,6R)-N-(benzo[d]thiazol-5-yl)-4-(4-(4-bromo-3,5-difluorophenyl)-1H-1,2,3-triazol-1-yl)-5-hydroxy-N-((1S,2S)-2-hydroxycyclohexyl)-6-(hydroxymethyl)-3-methoxytetrahydro-2H-pyran-2-carboxamide]
23 | 957 | CO[C@@H]1[C@@H](n2cc(-c3cc(F)c(Br)c(F)c3)nn2)[C@@H](O)[C@@H](CO)O[C@H]1C(=O)N(c1cc(Cl)cc(C#N)c1)[C@H]1CCCC[C@@H]1O [Example 154, (2R,3R,4S,5R,6R)-4-(4-(4-bromo-3,5-difluorophenyl)-1H-1,2,3-triazol-1-yl)-N-(3-chloro-5-cyanophenyl)-5-hydroxy-N-((1S,2S)-2-hydroxycyclohexyl)-6-(hydroxymethyl)-3-methoxytetrahydro-2H-pyran-2-carboxamide]
